# From patent US7037717B1, “Cell line and screening method with the use of the same” (Chugai Seiyaku Kabushiki Kaisha, priority 1997, dated 2006)
# Experiments:
# CL-1 cells [1] = experiment: Differentiation of CL-1 cells into adipocytes, Oil red O-positive lipid droplets; type: cell-based, mouse
# Description: Influences of 1,25-dihydroxyvitamin D3 known to inhibit conversion of a adipocyte precursor cell line 3T3-L1 into adipocytes (Comp. Biochem. Physiol. 96A, (1990)) on differentiation of CL-1 cells into adipocytes were examined. CL-1 cells were cultured on a 4-well chamber slide (Nunc) at a cell density of 2500 cells/cm^2 to confluent, after which 1,25-dihydroxyvitamin D3 was added at a final concentration of […] for each medium change.
# CL-1 cells [2] = experiment: Calcification of CL-1 cells, Ca deposition per dish (O-CPC method); type: cell-based, mouse; conditions: 10^−9, 10^−8 or 10^−7 M; vs solvent control, on and after 2 weeks post confluent
# Description: CL-1 cells were cultured on a 60-mm dish (CORNING) at a cell density of 2000 cells/cm^2. When cells reached to confluent, 1,25-dihydroxyvitamin D3 was added at a final concentration of 10^−9, 10^−8 or 10^−7 M, then samples were weekly collected for 4 weeks post confluent to determine the Ca content with time. Namely, cell layers were washed with Ca-Mg-free PBS three times, then harvested in a crucible with a cell scraper (Nunc), then dried in an incubator at 60° C., then burned overnight in an oven at 800° C., and the remaining ash was dissolved in 500 μl of 6N hydrochloric acid (Wako Pure Chemical Industries). The Ca content in this solution was determined by the O-CPC method (Ca test Wako, available from Wako Pure Chemical Industries) to calculate the Ca deposition per dish.
# CL-1 cells [3] = experiment: Alizarin red S staining of CL-1 nodules; type: cell-based, mouse; conditions: 10 mM in medium, cultured one month
# Description: CL-1 cells were similarly cultured in the medium supplemented with 10 mM β-glycerophosphate. Then, they were fixed in 4% paraformaldehyde (pH 7.4), washed with distilled water, then stained with a 1% Alizarin red S (Merck) solution for 5 minutes, washed with water and then observed with naked eyes and with an optical microscope.
# CL-1 cells [4] = experiment: Stainability of CL-1 cells with Alcian blue (pH 1.0), cartilage-inducing ability; type: cell-based, mouse; conditions: for Alcian blue (pH 1.0)-positive nodules: morphologically, compared with the medium alone
# Description: In order to examine whether or not CL-1 cells can be used as an in vitro screening system for cartilage-inducing materials, effects of hTGF-β, known to have cartilage-inducing ability (J. Biol. Chem. 261, 5693 (1986)) on the stainability of CL-1 cells with Alcian blue (pH 1.0) were examined. Namely, CL-1 cells were cultured on a 24-well plate (CORNING) at a cell density of 2500 cells/cm^2 to confluent, at which human transforming growth factor-β1 (hTGF-β1; AUSTRAL Biologicals) was added at a concentration of 0.1, 1.0 or 10 ng/ml, and cultivation took place for 3 weeks after the start of the addition with the medium being changed every 2 or 3 days. The addition of hTGF-β1 was performed for each medium change. After completion of cultivation, cells were fixed in 4% paraformaldehyde (Wako Pure Chemical Industries) and washed with water, then treated with 0.1 N hydrochloric acid (Wako Pure Chemical Industries) for 3 minutes, and then stained overnight with an Alcian blue (pH 1.0) solution (concentration: 1%). After completion of staining, samples were washed with distilled water three times and air-dried. The dried samples were immersed in 300 μl of a 6 M guanidine hydrochloride solution (Wako Pure Chemical Industries) for 3 hours and stirred, after which the absorbance of the guanidine hydrochloride solution at 620 nm was determined.
# ATDC-5 cells = experiment: Stainability of ATDC-5 cells with Alcian blue (pH 1.0); type: cell-based; conditions: 10 μg/ml insulin and 0.1 to 10 ng/ml hTGF-β1, 7 days post confluent
# Description: ATDC-5 cells known to differentiate into chondrocytes in the presence of insulin (Cell Diff. Dev. 30, 109 (1990); available from the Cell Bank of The Institute of Physical and Chemical Research) were also cultured by the same procedure in the presence of 10 μg/ml of insulin and 0.1 to 10 ng/ml of hTGF-β1 for 7 days post confluent to examine the stainability with Alcian blue (pH 1.0).
# CL-1 cells [5] = experiment: Uptake of 35S-labeled sulfuric acid into CL-1 cell layers; type: cell-based, mouse
# Description: CL-1 cells were plated on a polystyrene 96-well plate (Wallac) at a cell density of 2000 cells/well, and incubated in (α-MEM (GIBCO) containing 10% inactivated serum (Intergen), 100 U/ml penicillin and 100 μg/ml streptomycin in an incubator at 37° C., 5% CO2, with the medium being changed with a fresh medium 3 times a week to reach confluency. After confluency was confirmed with a microscope, the medium was changed with a fresh medium containing human TGF-β1 (AUSTRAL BIOLOGICALS) at a concentration of 0.1, 1.0 or 10 ng/ml and incubation was continued. After 24 hours, ^35S-labeled sulfuric acid (Amersham) was added at 0.5 μCi/well and incubation was continued for further 24 hours. Then, the medium was changed with 200 μl of 0.1 M phosphate buffer (pH 7.4) containing 5% paraformaldehyde (Wako Pure Chemical Industries) and 0.4% cetylpyridinium chloride (Wako Pure Chemical Industries) for fixation at room temperature for 2 hours. After CL-1 cell layers were washed once with the same buffer, 100 μl of a liquid scintillator (Optiphase supermix, available from Wallac) was added to each well followed by stirring, so that the radioactivity of ^35S-labeled sulfuric acid incorporated into CL-1 cell layers was determined by a liquid scintillation counter (Microbeta 1450, available from Wallac).
# CL-1 cells [6] = experiment: Cartilage destruction: Alcian blue stainability of hTGF-β1-enhanced CL-1 cells; type: cell-based, mouse
# Description: This example relates to an examination about whether or not cartilage-like nodules formed by culturing CL-1 cells in the presence of hTGF-β1 are destroyed by inflammatory cytokines IL-1 or TNF-α. CL-1 cells were cultured on a 24-well plate (CORNING) at a cell density of 2500 cells/cm^2 to confluent, after which hTGF-β1 was daily added to the medium for 5 days at a final concentration of 1.0 ng/ml. Then, mouse interleukin 1α (mIL-1α; R & D systems) and mouse tumor necrosis factor-a (mTNF-α; R & D systems) were daily added to the medium for 5 days at a final concentration of 0.1, 1.0 or 10 ng/ml, and the cells were cultured. Then, the stainability of CL-1 cells with Alcian blue (pH 1.0) was determined as described hereinbefore. As a result, the stainability with Alcian blue (pH 1.0) decreased in the presence of mIL-1α at 0.1 ng/ml or more (see FIG. 15) and mTNF-α at 1.0 ng/ml or more (see FIG. 16).
molecule,measurement,setting,value
"C=C1/C(=C\C=C2/CCC[C@]3(C)[C@@H]([C@H](C)CCCC(C)(C)O)CC[C@@H]23)C[C@@H](O)C[C@@H]1O [1,25-dihydroxyvitamin D3]",intracellular accumulation of Oil red O-positive lipid droplets,"CL-1 cells [1]; 10^−3 M at each medium change, 3 weeks",remarkably inhibits
same,amount of Ca deposition,CL-1 cells [2],significantly inhibited
O=P(O)(O)OC(CO)CO [β-glycerophosphate],Alizarin red S staining of nodules,CL-1 cells [3],turned positive
"hTGF-β1: human transforming growth factor-β1 (AUSTRAL Biologicals), known to have cartilage-inducing ability",stainability with Alcian blue (pH 1.0),"CL-1 cells [4]; 0.1, 1.0 or 10 ng/ml added at each medium change, 3 weeks post confluent, absorbance at 620 nm",increased dose-dependently
same,Alcian blue (pH 1.0)-positive nodules,CL-1 cells [4]; 3 weeks post confluent,clearly increased
same,stainability of ATDC-5 cells with Alcian blue (pH 1.0),ATDC-5 cells,dose-dependently decreased
same,increase of the uptake of 35S-labeled sulfuric acid,"CL-1 cells [5]; 0.1, 1.0 or 10 ng/ml, FIG. 21",about double
same,concentration with statistically significant increase of the uptake of 35S-labeled sulfuric acid,"CL-1 cells [5]; vs control containing the medium alone, 48 h after addition",≥ 0.1 ng/mL
hIGF-I: human insulin-like growth factor-I (CHEMICON INTERNATIONAL),stainability with Alcian blue (pH 1.0),"CL-1 cells [4]; 100 ng/ml, similar test, 3 weeks",increase
same,Alcian blue (pH 1.0)-positive nodules,CL-1 cells [4]; 3 weeks post confluent,clearly increased
same,accumulation of Oil red O-positive lipid droplets in CL-1 cells,CL-1 cells [1]; compared with the medium alone,promoted
"mIL-1α: mouse interleukin 1α (R & D systems), inflammatory cytokine (protein, UniProt P01582 115-270, looked up) Interleukin-1 alpha: SAPYTYQSDLRYKLMKLVRQKFVMNDSLNQTIYQDVDKHYLSTTWLNDLQQEVKFDMYAYSSGGDDSKYPVTLKISDSQLFVSAQGEDQPVLLKELPETPKLITGSETDLIFFWKSINSKNYFTSAAYPELFIATKEQSRVHLARGLPSMTDFQIS",destruction of cartilage-like tissues formed by CL-1 cells in the presence of human TGF-β1,CL-1 cells [6],destroyed
same,concentration at which stainability with Alcian blue (pH 1.0) decreased,CL-1 cells [6]; daily added for 5 days after 5 days of hTGF-β1 1.0 ng/ml,≥ 0.1 ng/ml
